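Dose response: 5 concentrations. Exposure: 48 h. Format: 96-well plates. Endpoint: linear interpolation; highest concentration if not reached. GI50 marks 50% less growth.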 The source made the active and inactive calls. Rule as the data show it: active = GI50 up to about 1.1 µM and inactive = higher.
Columns and labels:
Assay in all cases: NCI anticancer screen, dose series, 48 h
[1] = system: 786-0
[2] = system: A498
[3] = system: A549
[4] = system: ACHN
[5] = system: BT-549
[6] = system: CAKI-1
[7] = system: CCRF-CEM
[8] = system: COLO 205
[9] = system: DU-145
[10] = system: EKVX
[11] = system: HCC 2998
[12] = system: HCT-116
[13] = system: HCT-15
[14] = system: HL-60
[15] = system: HOP-62
[16] = system: HT-29
[17] = system: Hs-578T
[18] = system: IGROV-1
[19] = system: K562
[20] = system: KM12
[21] = system: LOX IMVI
[22] = system: M14
[23] = system: MCF7
[24] = system: MDA-MB-231
[25] = system: MDA-MB-435
[26] = system: MDA-N
[27] = system: MOLT-4
[28] = system: Malme-3M
[29] = system: NCI-H226
[30] = system: NCI-H23
[31] = system: NCI-H460
[32] = system: NCI/ADR-RES
[33] = system: OVCAR-3
[34] = system: OVCAR-4
[35] = system: OVCAR-5
[36] = system: OVCAR-8
[37] = system: PC-3
[38] = system: RPMI-8226
[39] = system: RXF 393
[40] = system: SF-268
[41] = system: SF-295
[42] = system: SF-539
[43] = system: SK-MEL-28
[44] = system: SK-MEL-5
[45] = system: SK-OV-3
[46] = system: SN12C
[47] = system: SNB-19
[48] = system: SNB-75
[49] = system: SR
[50] = system: SW-620
[51] = system: TK-10
[52] = system: U-251
[53] = system: UACC-257
[54] = system: UACC-62
[55] = system: UO-31
[56] = system: HOP-92
[57] = system: NCI-H522
[58] = system: T47D

Measured: GI50

CC1C(C)(C)C23CC12C1(OCCO1)C3Br (configuration not stated)
> 100 µM: [13]
inactive: [1] > 100 µM | [2] > 100 µM | [3] > 100 µM | [4] > 100 µM | [5] > 100 µM | [6] > 100 µM | [7] > 100 µM | [8] > 100 µM | [9] > 100 µM | [10] > 100 µM | [11] > 100 µM | [12] > 100 µM | [14] > 100 µM | [15] > 100 µM | [16] > 100 µM | [17] > 100 µM | [18] > 100 µM | [19] > 100 µM | [20] > 100 µM | [21] > 100 µM | [22] > 100 µM | [23] > 100 µM | [24] > 100 µM | [25] > 100 µM | [26] > 100 µM | [27] > 100 µM | [28] > 100 µM | [29] > 100 µM | [30] > 100 µM | [31] > 100 µM | [32] > 100 µM | [33] > 100 µM | [34] > 100 µM | [35] > 100 µM | [36] > 100 µM | [37] > 100 µM | [38] > 100 µM | [39] > 100 µM | [40] > 100 µM | [41] > 100 µM | [42] > 100 µM | [43] > 100 µM | [44] > 100 µM | [45] > 100 µM | [46] > 100 µM | [47] > 100 µM | [48] > 100 µM | [49] > 100 µM | [50] > 100 µM | [51] > 100 µM | [52] > 100 µM | [53] > 100 µM | [54] > 100 µM | [55] 11.2 µM

CC(=O)Oc1ccc2c(-c3ccccc3)c(Oc3ccc(Cl)cc3)c(=O)oc2c1
3.16 µM: [13]
inactive: [1] 16.4 µM | [2] 17 µM | [3] 13.7 µM | [4] 16.9 µM | [5] 18.8 µM | [6] 18.3 µM | [7] 15.4 µM | [9] 14.4 µM | [10] 15.6 µM | [11] 7.55 µM | [12] 14.9 µM | [14] 42.3 µM | [15] 18.3 µM | [56] 10.4 µM | [16] 20.8 µM | [17] 20.1 µM | [18] 15.9 µM | [19] 14.8 µM | [20] 14.4 µM | [21] 20.6 µM | [22] 19.8 µM | [23] 20.7 µM | [24] 18.7 µM | [27] 18.1 µM | [28] 15.6 µM | [29] 17.3 µM | [30] 18.7 µM | [31] 14.7 µM | [57] 2.82 µM | [33] 14.5 µM | [34] 15.2 µM | [35] 17.9 µM | [36] 18.5 µM | [37] 23.1 µM | [38] 47.1 µM | [39] 18 µM | [40] 6.17 µM | [41] 17.9 µM | [42] 16.4 µM | [43] 17.7 µM | [44] 18 µM | [46] 24.1 µM | [47] 14.4 µM | [48] 7.45 µM | [49] 28.8 µM | [50] 20.3 µM | [58] 6.21 µM | [51] 13.5 µM | [52] 4.19 µM | [53] 21.3 µM | [55] 14.8 µM

Reference: ChEMBL document CHEMBL1201862, “PubChem BioAssay data set” (2004)
